Assay results published in ChEMBL document CHEMBL1201862, “PubChem BioAssay data set” (2004).
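Five compound concentrations were applied to cells in 96-well plates for 48 hours; endpoints were derived by simple linear interpolation of the resulting dose-response curve. Here, GI50 denotes the concentration required for 50% inhibition of growth.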 Active and inactive are the calls of the source. Rule as the data show it: active = GI50 up to about 1.1 µM and inactive = higher.

Key:
Test in all cases: NCI-60 cell line screen, 48 h
786-0 = tested on: 786-0
ACHN = tested on: ACHN
HL-60 = tested on: HL-60
HOP-92 = tested on: HOP-92
IGROV-1 = tested on: IGROV-1
K562 = tested on: K562
M14 = tested on: M14
MCF7 = tested on: MCF7
MOLT-4 = tested on: MOLT-4
Malme-3M = tested on: Malme-3M
NCI-H460 = tested on: NCI-H460
NCI-H522 = tested on: NCI-H522
SF-539 = tested on: SF-539
SNB-75 = tested on: SNB-75
SR = tested on: SR
UACC-62 = tested on: UACC-62
UO-31 = tested on: UO-31
HOP-62 = tested on: HOP-62
RXF 393 = tested on: RXF 393

Compound: O=C(NN=C1CCCCC1)Nc1ccccc1Cl
- GI50 (786-0): > 100 µM (inactive)
- GI50 (ACHN): > 100 µM (inactive)
- GI50 (HL-60): 29.6 µM (inactive)
- GI50 (HOP-92): 23.6 µM (inactive)
- GI50 (IGROV-1): 26.5 µM (inactive)
- GI50 (K562): 37.7 µM (inactive)
- GI50 (M14): 29.8 µM (inactive)
- GI50 (MCF7): 34.2 µM (inactive)
- GI50 (MOLT-4): 47.8 µM (inactive)
- GI50 (Malme-3M): 40.3 µM (inactive)
- GI50 (NCI-H460): 42.5 µM (inactive)
- GI50 (NCI-H522): 23.1 µM (inactive)
- GI50 (SF-539): 32.5 µM (inactive)
- GI50 (SNB-75): 2.82 µM (inactive)
- GI50 (SR): 22.5 µM (inactive)
- GI50 (UACC-62): 36.8 µM (inactive)
- GI50 (UO-31): 61.9 µM (inactive)

Compound: COC(=O)C1=CS/C(=C2\S[C@@H]3[C@H](S2)[C@H]2C=C[C@@H]3C2)S1
- GI50 (786-0): 92 µM (inactive)
- GI50 (HL-60): 9.82 µM (inactive)
- GI50 (HOP-62): > 100 µM (inactive)
- GI50 (HOP-92): 79.8 µM (inactive)
- GI50 (IGROV-1): 39.2 µM (inactive)
- GI50 (K562): 2.74 µM (inactive)
- GI50 (M14): 48.3 µM (inactive)
- GI50 (MCF7): 10.9 µM (inactive)
- GI50 (MOLT-4): 5.19 µM (inactive)
- GI50 (Malme-3M): > 100 µM (inactive)
- GI50 (NCI-H460): 34.9 µM (inactive)
- GI50 (RXF 393): 29.6 µM (inactive)
- GI50 (SF-539): 6.19 µM (inactive)
- GI50 (SNB-75): 46.1 µM (inactive)
- GI50 (SR): 3.4 µM (inactive)
- GI50 (UACC-62): 12.5 µM (inactive)
- GI50 (UO-31): 46.1 µM (inactive)

Compound: c1ccc2c(c1)c1c(n2CCOCCN2CCCC2)CCCC1
- GI50 (786-0): 16.1 µM (inactive)
- GI50 (ACHN): 20.1 µM (inactive)
- GI50 (HL-60): 12.2 µM (inactive)
- GI50 (HOP-62): 15.5 µM (inactive)
- GI50 (HOP-92): 27.7 µM (inactive)
- GI50 (IGROV-1): 23.7 µM (inactive)
- GI50 (K562): 15 µM (inactive)
- GI50 (M14): 15.6 µM (inactive)
- GI50 (MCF7): 16 µM (inactive)
- GI50 (MOLT-4): 16.7 µM (inactive)
- GI50 (Malme-3M): 17.1 µM (inactive)
- GI50 (NCI-H460): 15 µM (inactive)
- GI50 (SF-539): 14.5 µM (inactive)
- GI50 (SNB-75): 27.3 µM (inactive)
- GI50 (SR): 17.2 µM (inactive)
- GI50 (UACC-62): 18.6 µM (inactive)
- GI50 (UO-31): 12.8 µM (inactive)

Compound: NC(=S)N/N=C1\CCc2ccccc2C1
- GI50 (786-0): > 100 µM (inactive)
- GI50 (ACHN): > 100 µM (inactive)
- GI50 (HL-60): 34.7 µM (inactive)
- GI50 (HOP-62): > 100 µM (inactive)
- GI50 (HOP-92): > 100 µM (inactive)
- GI50 (IGROV-1): > 100 µM (inactive)
- GI50 (K562): > 100 µM (inactive)
- GI50 (M14): > 100 µM (inactive)
- GI50 (MCF7): 54.2 µM (inactive)
- GI50 (MOLT-4): > 100 µM (inactive)
- GI50 (Malme-3M): > 100 µM (inactive)
- GI50 (NCI-H460): > 100 µM (inactive)
- GI50 (NCI-H522): 55.3 µM (inactive)
- GI50 (RXF 393): 80.4 µM (inactive)
- GI50 (SF-539): > 100 µM (inactive)
- GI50 (SR): > 100 µM (inactive)
- GI50 (UACC-62): 55 µM (inactive)
- GI50 (UO-31): > 100 µM (inactive)

Compound: O=C1/C(=C\c2cccc(Oc3ccccc3)c2)S(=O)(=O)C(c2ccccc2)N1Cc1ccccc1 (configuration not stated)
- GI50 (786-0): 19.6 µM (inactive)
- GI50 (ACHN): 23 µM (inactive)
- GI50 (HL-60): 11.7 µM (inactive)
- GI50 (HOP-62): 26.5 µM (inactive)
- GI50 (HOP-92): 19.3 µM (inactive)
- GI50 (K562): 26 µM (inactive)
- GI50 (M14): 27.4 µM (inactive)
- GI50 (MCF7): 39.1 µM (inactive)
- GI50 (MOLT-4): 0.83 µM (active)
- GI50 (Malme-3M): 18.4 µM (inactive)
- GI50 (NCI-H460): 15.1 µM (inactive)
- GI50 (NCI-H522): 13.9 µM (inactive)
- GI50 (RXF 393): 27 µM (inactive)
- GI50 (SF-539): 36.4 µM (inactive)
- GI50 (SR): 14.9 µM (inactive)
- GI50 (UACC-62): 19.1 µM (inactive)
- GI50 (UO-31): 18.7 µM (inactive)

Compound: COc1ccc(/C=C2\C[C@H]3[C@@H]4CC=C5C[C@@H](O)CC[C@]5(C)[C@H]4CC[C@]3(C)\C2=N\O)cc1
- GI50 (786-0): 14.3 µM (inactive)
- GI50 (ACHN): 19.5 µM (inactive)
- GI50 (HL-60): 3.17 µM (inactive)
- GI50 (HOP-62): 55.6 µM (inactive)
- GI50 (HOP-92): 25.6 µM (inactive)
- GI50 (IGROV-1): 38.2 µM (inactive)
- GI50 (K562): 4.85 µM (inactive)
- GI50 (M14): 12.7 µM (inactive)
- GI50 (MCF7): 3.62 µM (inactive)
- GI50 (MOLT-4): 5.89 µM (inactive)
- GI50 (Malme-3M): 24.9 µM (inactive)
- GI50 (NCI-H460): 34.4 µM (inactive)
- GI50 (NCI-H522): 4.97 µM (inactive)
- GI50 (RXF 393): 12.7 µM (inactive)
- GI50 (SF-539): 21.8 µM (inactive)
- GI50 (SR): 1.89 µM (inactive)
- GI50 (UACC-62): 17.7 µM (inactive)
- GI50 (UO-31): 14.3 µM (inactive)

Compound: Cc1ccc(SC2C(=O)C3CC(OCc4ccccc4)C2(C)C3(C)C)cc1 (configuration not stated)
- GI50 (786-0): > 100 µM (inactive)
- GI50 (ACHN): > 100 µM (inactive)
- GI50 (HL-60): 37.9 µM (inactive)
- GI50 (HOP-62): > 100 µM (inactive)
- GI50 (HOP-92): 29.6 µM (inactive)
- GI50 (IGROV-1): > 100 µM (inactive)
- GI50 (K562): 32.9 µM (inactive)
- GI50 (M14): > 100 µM (inactive)
- GI50 (MCF7): > 100 µM (inactive)
- GI50 (MOLT-4): 13 µM (inactive)
- GI50 (Malme-3M): > 100 µM (inactive)
- GI50 (NCI-H460): > 100 µM (inactive)
- GI50 (RXF 393): 52 µM (inactive)
- GI50 (SF-539): > 100 µM (inactive)
- GI50 (SR): 51.3 µM (inactive)
- GI50 (UACC-62): > 100 µM (inactive)
- GI50 (UO-31): > 100 µM (inactive)

Compound: OC(c1cccnc1)C(F)(F)c1nc2ccccc2o1 (configuration not stated)
- GI50 (786-0): > 100 µM (inactive)
- GI50 (ACHN): > 100 µM (inactive)
- GI50 (HL-60): > 100 µM (inactive)
- GI50 (HOP-62): > 100 µM (inactive)
- GI50 (HOP-92): > 100 µM (inactive)
- GI50 (IGROV-1): > 100 µM (inactive)
- GI50 (K562): 56.5 µM (inactive)
- GI50 (MCF7): > 100 µM (inactive)
- GI50 (MOLT-4): > 100 µM (inactive)
- GI50 (NCI-H460): > 100 µM (inactive)
- GI50 (RXF 393): > 100 µM (inactive)
- GI50 (SF-539): > 100 µM (inactive)
- GI50 (SNB-75): > 100 µM (inactive)
- GI50 (SR): > 100 µM (inactive)
- GI50 (UACC-62): > 100 µM (inactive)
- GI50 (UO-31): > 100 µM (inactive)
